Experimental data published in PMC9919139, “Sustainable Synthesis, Antiproliferative and Acetylcholinesterase Inhibition of 1,4- and 1,2-Naphthoquinone Derivatives” (Molecules, 2023).
Where “and” joins values, the source holds several entries; their conditions need not be identical. Identical values can stand only once. Like-named read-outs stand apart in the source and are kept apart here.

Key:
[1] = MTT cytotoxicity assay against HepG2 cell line; format: cell-based, human; details: human, HepG2 cells, HepG2, 24 h incubation, mean ± SD, read-out: EC50 (cytotoxicity, concentration leading to the death of 50% of the cells)
Experimental: (§1) A hepatocellular carcinoma cell line HepG2, recognized for studying the metabolism of anticancer drugs, was used. The viability of HepG2 cell line culture after 24 h incubation with the compounds using the MTT (3-[4,5-dimethylthiazol-2-yl]-2,5-diphenyl tetrazolium bromide) assay was evaluated, and doxorubicin (Doxo) was used as a positive control.
(§2) HepG2 human hepatocyte carcinoma cell line was purchased from European Collection of Authenticated Cell Cultures (ECACC). HepG2 cells (ECACCC# 85011430) were cultured in Dulbecco’s Modified Eagle´s Medium (DMEM) supplemented with 10% fetal bovine serum, antibiotic-antimycotic (100 U/mL penicillin-streptomycin and 0.25 μg amphotericin B) and 2 mM L-glutamine at 37 °C in an atmosphere containing 5% CO2. The 3-(4,5-dimethylthiazol-2-yl)-2,5-diphenyltetrazolium bromide (MTT) method, described in Gaspar et al., [50] was used for assaying cell viability. Briefly, the cells were grown in the supplemented medium in 96-well microplates in an incubator with 5% CO2 at 37 °C, until reaching 100% confluence. After growth, the medium was replaced by the compounds’ solutions at different concentrations. The compounds were solubilized in supplemented medium containing 0.5% DMSO final concentration. Cells treated only with medium containing 0.5% DMSO served as a negative control. After 24 h incubation, the compound’s solutions were replaced by 100 µL of 0.5 mg/mL MTT solution in DMEM culture medium and incubated at 37 °C, 5% CO2 for 2–4 h. The formed formazan crystals were dissolved in 200 µL of methanol and the absorbance at 595 nm was registered against 630 nm (reference wavelength). For each concentration of the compounds, the percentage of growth inhibition/cytotoxicity was evaluated considering 100% of viability for the absorbance of the negative control. Dose-response curves for each compound were plotted using the Graph Pa Prim 4.0 software and the effective concentration leading to the death of 50% of the cells (EC50) was calculated. All experiments were replicated at least six times.

[2] = system: HepG2 human hepatocyte carcinoma cell line; experiment: MTT cytotoxicity assay against HepG2 cell line; format: cell-based; details: HepG2, 24 h incubation, mean ± SD, read-out: EC50 (cytotoxicity, concentration leading to the death of 50% of the cells)
Experimental: as §1, §2

[3] = Cyclic voltammetry in acetonitrile; format: physicochemical; details: for Ipa/Ipc: Tables S1/S2, acetonitrile; for Epa. Epc: Tables S1/S2, peak separation; for ∆E (I) / E1/2 (I) / Epc (I): first reduction wave; for ∆E (I) / E1/2 (I) / Epc (I) / Epc (II) / ∆E (II) / E1/2 (II): scan rate 0.100 V·s−1; for Epc (II) / ∆E (II) / E1/2 (II): second reduction wave
Source text: To obtain an insight into the electronic character of the studied naphthoquinone derivatives and to find out possible relationships with their potential biological activities, the electrochemical behavior of 1,4-NQ (1) and 1,2-NQ (2) and their 2-substituted-1,4-NQ (3a–f) and 4-substituted-1,2-NQ derivatives (4a–h), respectively, were studied by cyclic voltammetry (CV) in aprotic medium (CH3CN + TBAP, 0.1 mol.L^−^1) and the electrochemical selected data are listed in Table 3 (for complete electrochemical data, see Tables S1 and S2, supplementary material).
The redox potentials were measured by cyclic voltammetry using an EG&G Princeton Applied Research (PAR) Model 273A potentiostat/galvanostat monitored by a personal computer with the Electrochemistry PowerSuite v2.51 software from PAR. Cyclic voltammograms were obtained in 1 mM of compounds in anhydrous acetonitrile solutions containing tetrabutylammonium hexafluorophosphate (TBAPF6) 0.1 M as supporting electrolyte. A three-electrode configuration cell was used with a homemade platinum disk working electrode (1.0 mm diameter) probed by a Luggin capillary connected to a silver-wire pseudo-reference electrode and a platinum wire auxiliary electrode. The potentials were scanned from −1.8 to 1.8 V at a scan rate of 100 mV·s^−^1. All measurements were done at room temperature and the solutions were deaerated with nitrogen atmosphere before use. All the potentials reported were measured against the ferrocene/ferrocenium redox couple as internal standard and corrected to SCE (using the ferrocenium/ferrocene redox couple E1/2 = 0.40 V vs. SCE).

[4] = biological target: acetylcholinesterase (AChE) (Homo sapiens, UniProt P22303); experiment: AChE inhibition assay (Ellman's colorimetric method); format: biochemical; details: for IC50: concentration that inhibits 50% of the AChE activity, read-out: AChEIC50
acetylcholinesterase (AChE), sequence (P22303 32-614): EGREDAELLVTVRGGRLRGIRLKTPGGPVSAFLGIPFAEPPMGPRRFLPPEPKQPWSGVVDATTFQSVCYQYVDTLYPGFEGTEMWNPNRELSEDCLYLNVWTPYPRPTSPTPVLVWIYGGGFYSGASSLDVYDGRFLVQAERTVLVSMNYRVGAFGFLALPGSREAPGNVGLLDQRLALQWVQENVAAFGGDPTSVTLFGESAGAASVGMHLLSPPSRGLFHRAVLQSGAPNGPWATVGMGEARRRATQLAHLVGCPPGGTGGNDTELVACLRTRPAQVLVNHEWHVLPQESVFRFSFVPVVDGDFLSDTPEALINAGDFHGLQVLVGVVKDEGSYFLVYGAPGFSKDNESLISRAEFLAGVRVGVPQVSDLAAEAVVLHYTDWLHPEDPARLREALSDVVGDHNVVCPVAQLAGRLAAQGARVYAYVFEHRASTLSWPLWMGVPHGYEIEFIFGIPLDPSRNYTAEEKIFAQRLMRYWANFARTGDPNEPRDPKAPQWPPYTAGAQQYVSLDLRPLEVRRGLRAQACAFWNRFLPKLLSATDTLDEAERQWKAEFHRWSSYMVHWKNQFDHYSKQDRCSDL
Experimental: The inhibition of acetylcholinesterase (AChE) enzymatic activity was measured using the Ellman’s colorimetric method with some alterations. Briefly, 325 μL of 50 mM Tris–HCl buffer (pH 8), 100 μL of a compound’s solution with 1% DMSO, and 25 μL of AChE (0.1 U/mL) in 50 mM Tris–HCl buffer pH 8 were incubated for 15 min. Subsequently, 75 μL of acetylthiocholine iodide (AChI) (0.023 mg/mL) and 475 μL of 3 mM 5,5′-dithiobis(2-nitrobenzoic acid) (DTNB) in Tris–HCl buffer (pH 8) containing 0.05 M NaCl and 0.021 M MgCl2 were added to initiate the reaction. The initial rate of the enzymatic reaction was quantified by measuring the absorbance at 405 nm for 5 min (V[compound]). A control reaction was carried out using 1% DMSO water solution, instead of the compound’s solution, and this initial rate was considered 100% of the enzymatic activity, Vcontrol. The percentage of AChE inhibition (I) for various concentrations of the different compounds was determined as the ratio of V[compound] and Vcontrol. For each compound, both the AChEIC50 value (the concentration that inhibits 50% of the AChE activity) and the percentage of inhibition at the compound concentration of 50 µM (Inhibition50µM) were calculated by plotting I for each compound concentration. All the assays were carried out in triplicate.

AChE = details: read-out: AChEIC50 of reference AChE inhibitors; cited from earlier work
[5] = Tables S1/S2, every redox process listed, acetonitrile, vs SCE, 100 mV.s-1
[6] = read-out: Inhibition50µM (AChE inhibition)
[7] = read-out: Inhibiton50µM (μM±SD)

SMILES	EC50 at 24 h [1]	Ipa/Ipc ([3]; 100 mV.s-1)	E1/2 [3, 5]	Epa. Epc ([3]; acetonitrile, 100 mV.s-1)	∆E (I) ([3]; acetonitrile)	E1/2 (I) ([3]; acetonitrile, vs SCE)	Epc (I) ([3]; acetonitrile, vs SCE)	Epc (II) ([3]; acetonitrile, vs SCE)	inhibition at 50 µM [4, 7]	also measured
O=C1C=CC(=O)c2ccccc21 [Compound 1, 1,4-naphthoquinone, reference compound]	32.2 ± 1.4 µM	0.9	-0.66 V	80 mV	80 mV	−0.66 V	−0.70 V	−1.36 V	50.7 ± 2.3%	EC50 ([2]; listed as 1,4-NQ): 32 µM; inhibition at 50 µM [4, 6]: 51%
O=C1C=Cc2ccccc2C1=O [Compound 2, 1,2-naphthoquinone]	25.6 ± 1.1 µM	1.0	–	110 mV and 140 mV	110 mV	−0.50 V	−0.55 V	−0.98 V	34.9 ± 5.2%	EC50 ([2]; listed as 1,2-NQ): 26 µM; ∆E (II) ([3]; acetonitrile): 140 mV; E1/2 (II) ([3]; acetonitrile, vs SCE): −0.91 V; inhibition at 50 µM [4, 6]: 35%
Nc1ccc(NC2=CC(=O)c3ccccc3C2=O)cc1 [Compound 3a, 2-(1,4-Phenylenediamine)-1,4-naphthoquinone]	8.7 ± 1.3 µM	0.9	-0.82 V	80 mV	80 mV	−0.82 V	−0.86 V	−1.42 V	23.4 ± 2.5%	–
O=C1C=C(Nc2ccc(O)cc2)C(=O)c2ccccc21 [Compound 3b, 2-(4-aminophenol)-1,4-naphthoquinone]	21.4 ± 3.9 µM	1.0	-0.81 V	–	70 mV	−0.81 V	−0.84 V	–	16.4 ± 2%	Epc [3, 5]: -0.84 V
COc1ccc(NC2=CC(=O)c3ccccc3C2=O)cc1 [Compound 3c, 2-(4-methoxyaniline)-1,4-naphthoquinone]	13 ± 1.8 µM	1.0	–	120 mV	70 mV	−0.82 V	−0.86 V	−1.34 V	25.9 ± 3%	–
N#Cc1ccc(NC2=CC(=O)c3ccccc3C2=O)cc1 [Compound 3d, 2-(4-aminobenzonitrile)-1,4-naphthoquinone]	79.4 ± 1.4 µM	1.0	-0.70 V	80 mV	80 mV	−0.70 V	−0.74 V	–	25.8 ± 3%	Epa [3, 5]: -0.66 V
CCCCNC1=CC(=O)c2ccccc2C1=O [Compound 3e, 2-(butan-1-amine)-1,4-naphthoquinone]	35.8 ± 1.5 µM	1.0	–	100 mV	70 mV	−0.95 V	−0.98 V	−1.47 V	48.3 ± 1.6%	∆E (II) ([3]; acetonitrile): 100 mV; E1/2 (II) ([3]; acetonitrile, vs SCE): −1.42 V
CCN(CC)C1=CC(=O)c2ccccc2C1=O [Compound 3f, 2-(diethylamine)-1,4-naphthoquinone]	64.7 ± 1.4 µM	1.0	-0.94 V	–	70 mV	−0.94 V	−0.97 V	–	47.9 ± 2.5%	Epc [3, 5]: -0.97 V
Nc1ccc(NC2=CC(=O)C(=O)c3ccccc32)cc1 [Compound 4a]	2.7 ± 1 µM	–	–	–	–	–	−0.67 V	–	51.7 ± 2.1%	EC50 [2]: 3 µM; Epc [3, 5]: -0.67 V
O=C1C=C(Nc2ccc(O)cc2)c2ccccc2C1=O [Compound 4b]	7.1 ± 1.8 µM	–	–	–	–	–	−0.61 V	–	74.1 ± 1.1%	Epc [3, 5]: -0.61 V; IC50 [4]: 30 µM
COc1ccc(NC2=CC(=O)C(=O)c3ccccc32)cc1 [Compound 4c]	6.5 ± 1.4 µM	–	–	–	–	–	−0.67 V	–	45.8 ± 2.9%	–
N#Cc1ccc(NC2=CC(=O)C(=O)c3ccccc32)cc1 [Compound 4d]	26.8 ± 1.1 µM	–	–	–	–	–	−0.47 V	−0.84 V	41.6 ± 2.4%	–
CCCCNC1=CC(=O)C(=O)c2ccccc21 [Compound 4e, 4-(butan-1-amine)-1,2-naphthoquinone]	26.8 ± 1.1 µM	–	-0.71 V	150 mV	–	–	−0.78 V	–	62.4 ± 1.5%	Epc [3, 5]: -0.78 V
CCN(CC)C1=CC(=O)C(=O)c2ccccc21 [Compound 4f, 4-(diethylamine)-1,2-naphthoquinone]	23.1 ± 1.7 µM	0.9	-0.63 V	120 mV	–	–	−0.52 V	−0.69 V	54.7 ± 2%	∆E (II) ([3]; acetonitrile): 120 mV; E1/2 (II) ([3]; acetonitrile, vs SCE): −0.63 V
O=C1C=C(Nc2ccc(Nc3ccccc3)cc2)c2ccccc2C1=O [Compound 4g]	9.2 ± 2.3 µM	–	–	–	–	–	−0.63 V	−1.43 V	75.3 ± 1.3%	–
O=C1C=C(Nc2ccccc2O)c2ccccc2C1=O [Compound 4h]	9.1 ± 3.3 µM	–	–	–	–	–	−0.57 V	−0.98 V	85.3 ± 1.3%	IC50 [4]: 16 µM; inhibition at 50 µM [4, 6]: 85%
COc1cccc2c1C(=O)c1c(O)c3c(c(O)c1C2=O)C[C@@](O)(C(=O)CO)C[C@@H]3O[C@H]1C[C@H](N)[C@H](O)[C@H](C)O1 [Doxorubicin, doxorubicin, reference compound]	1.42 ± 1 µM	–	–	–	–	–	–	–	–	EC50 [2]: 1.4 µM
